Results on 3 compounds are retold here after ChEMBL document CHEMBL5518164, “Membrane-permeable tenofovir-di- and monophosphate analogues” (Eur J Med Chem, 2024).

In data set [1] the test system is Human immunodeficiency virus 2. Kind of data set: Antiviral activity against HIV-2 ROD infected in thymidine kinase deficient human CEM cells assessed as inhibition of virus-induced giant cell formation incubated for 4 to 5 days by light microscopy. In kind it is functional, organism-based. To be noted: Human immunodeficiency virus 2, ROD, CCRF-CEM.
Data set [2] is described as follows: Half life of the compound in phosphate buffer saline in presence of pig liver esterase at pH 7.3 by RP18-HPLC analysis. It is filed as ADME, Sus scrofa.
Data set [3] in a line: Drug metabolism in human CEM/0 cell extracts assessed as Tenofovir monophosphate formation by RP18-HPLC analysis. To be noted: ccrf-cem. It is filed as ADME.
The nature of data set [4]: Drug metabolism in phosphate buffer saline assessed as gamma-monoalkylated metabolite formation in presence of pig liver esterase at pH 7.3 by RP18-HPLC analysis. In kind it is ADME, Sus scrofa. The note with it: isolated protein.
Data set [5] in a line: Drug metabolism in phosphate buffer saline assessed as Tenofovir diphosphate formation in presence of pig liver esterase at pH 7.3 by RP18-HPLC analysis. In kind it is ADME, Sus scrofa. The note with it: isolated protein.
Data set [6] in a line: Lipophilicity of the compound assessed as retention time by RP-HPLC analysis. In kind it is physicochemical.
Data set [7] can be described thus: Drug hydrolysis in phosphate buffer saline incubated for 100 hrs in presence of pig liver esterase at pH 7.3 by RP18-HPLC analysis. In kind it is ADME, Sus scrofa. The note with it: read-out: Drug degradation.
Data set [8] deals with T1, DNA polymerase alpha catalytic subunit (Homo sapiens) (UniProt P09884).
T1 sequence (whole entry): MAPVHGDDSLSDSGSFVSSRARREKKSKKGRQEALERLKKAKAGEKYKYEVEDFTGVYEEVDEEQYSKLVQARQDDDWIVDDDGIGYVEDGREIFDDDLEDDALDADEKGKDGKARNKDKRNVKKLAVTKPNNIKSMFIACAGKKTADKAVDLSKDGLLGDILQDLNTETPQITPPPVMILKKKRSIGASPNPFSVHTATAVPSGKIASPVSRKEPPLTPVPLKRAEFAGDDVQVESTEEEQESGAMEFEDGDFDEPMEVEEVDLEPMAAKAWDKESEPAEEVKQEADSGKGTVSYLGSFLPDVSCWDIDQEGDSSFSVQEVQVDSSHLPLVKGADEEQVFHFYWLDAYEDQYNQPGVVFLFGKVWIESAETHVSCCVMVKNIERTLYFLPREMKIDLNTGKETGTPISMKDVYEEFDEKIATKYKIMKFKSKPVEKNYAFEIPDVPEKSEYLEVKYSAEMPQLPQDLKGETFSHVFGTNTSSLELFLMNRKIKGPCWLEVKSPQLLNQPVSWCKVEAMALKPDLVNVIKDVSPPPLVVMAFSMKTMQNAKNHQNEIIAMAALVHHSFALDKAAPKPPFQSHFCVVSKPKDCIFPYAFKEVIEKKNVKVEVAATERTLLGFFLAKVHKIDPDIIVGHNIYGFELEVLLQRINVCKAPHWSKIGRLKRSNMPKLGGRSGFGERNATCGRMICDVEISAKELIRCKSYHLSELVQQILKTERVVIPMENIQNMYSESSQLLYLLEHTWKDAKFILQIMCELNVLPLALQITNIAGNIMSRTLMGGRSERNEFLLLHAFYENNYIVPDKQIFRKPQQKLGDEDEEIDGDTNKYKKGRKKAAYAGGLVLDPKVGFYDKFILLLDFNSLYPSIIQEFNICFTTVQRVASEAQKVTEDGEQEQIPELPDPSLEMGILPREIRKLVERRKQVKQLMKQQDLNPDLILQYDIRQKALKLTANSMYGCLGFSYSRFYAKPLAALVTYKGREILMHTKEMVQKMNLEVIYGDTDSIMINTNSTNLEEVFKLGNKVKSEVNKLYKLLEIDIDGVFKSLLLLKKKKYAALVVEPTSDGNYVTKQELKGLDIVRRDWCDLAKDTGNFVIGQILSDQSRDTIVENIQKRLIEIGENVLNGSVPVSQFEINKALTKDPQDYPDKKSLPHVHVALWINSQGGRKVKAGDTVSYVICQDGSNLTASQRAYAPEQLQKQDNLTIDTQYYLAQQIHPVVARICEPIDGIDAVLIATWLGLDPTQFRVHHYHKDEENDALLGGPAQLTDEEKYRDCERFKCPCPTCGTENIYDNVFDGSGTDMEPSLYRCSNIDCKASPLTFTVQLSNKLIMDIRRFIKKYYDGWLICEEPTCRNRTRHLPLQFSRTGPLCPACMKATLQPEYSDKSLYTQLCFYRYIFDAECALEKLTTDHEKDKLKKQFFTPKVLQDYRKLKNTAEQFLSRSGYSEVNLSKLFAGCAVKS
The data set is described as follows: Substrate activity at human DNA polymerase alpha assessed as n+1 band formation incubated for 60 mins in presence of primer/template mixture and dNTPs by primer extension assay based fluorescence analysis.

Data set [9] is described as follows: Drug metabolism in human CEM/0 cell extracts assessed as (R)-9-(2-(phosphonomethoxy)propyl)adenine formation by RP18-HPLC analysis. In kind it is ADME. To be noted: ccrf-cem.
Data set [10] in a line: Drug metabolism in phosphate buffer saline assessed as (R)-9-(2-(phosphonomethoxy)propyl)adenine formation in presence of pig liver esterase at pH 7.3 by RP18-HPLC analysis. The note with it: isolated protein. It is filed as ADME, Sus scrofa.
Data set [11] has as its system Human immunodeficiency virus 2. Kind of data set: Potency index, ratio of Tenofovir EC50 to test compound EC50 for antiviral activity against HIV-2 ROD infected in thymidine kinase deficient human CEM cells. It is filed as functional.
The subject of data set [12] is Human immunodeficiency virus 2. Kind of data set: Potency index, ratio of Tenofovir EC50 to test compound EC50 for antiviral activity against HIV-2 ROD infected in wild type human CEM/0 cells. It is filed as functional.
In data set [13] the test system is Human immunodeficiency virus 1. Kind of data set: Potency index, ratio of Tenofovir EC50 to test compound EC50 for antiviral activity against HIV-1 HE infected in wild type human CEM/0 cells. It is filed as functional.
A short description of data set [14]: Drug hydrolysis in phosphate buffer saline incubated for 600 hrs at pH 7.3 by RP18-HPLC analysis. To be noted: read-out: Drug degradation. It is filed as physicochemical.
Data set [15] is described as follows: Drug metabolism in human CEM/0 cell extracts assessed as Tenofovir diphosphate formation by RP18-HPLC analysis. It is filed as ADME. To be noted: ccrf-cem.
A short description of data set [16]: Drug metabolism in human CEM/0 cell extracts assessed as gamma-monoalkylated metabolite formation by RP18-HPLC analysis. In kind it is ADME. To be noted: ccrf-cem.
Data set [17] in a line: Drug hydrolysis in phosphate buffer saline incubated for 500 hrs at pH 7.3 by RP18-HPLC analysis. It is filed as physicochemical. To be noted: read-out: Drug degradation.

Each structure is given as a SMILES string. Activity calls are given as the source filed them.

For the compound `CCCCCCCCCCCCCCCCCCOP(=O)(OCCCC)OP(=O)(O)OP(=O)(O)CO[C@H](C)Cn1cnc2c(N)ncnc21` (some centres undefined), in data set [1], the concentration giving a half-maximal response (EC50) – broadly, the concentration that produces a half-maximal response – turned out to be 12 nM. Besides, in [2], the half-life – broadly, the time needed for the level to fall by half in the phase considered – was over 100 h. The figures for the Drug metabolism entry in data set [3], in data set [4] and in [5] were “Metabolite_Detected”, “Metabolite_Notdetected” and “Metabolite_Notdetected”, respectively. Moreover, in data set [6], the Retention_time was found to be 15.5 min. Besides, the metabolised at 100 h in [7] came to 31%. The outcome in [8] was inactive.
In the case of `CCCCCCCCCCCCCCCCCCP(=O)(OCCCC)OP(=O)(O)CO[C@H](C)Cn1cnc2c(N)ncnc21` (some centres undefined), the 50% effective concentration (EC50) in [1] is 2 nM. Moreover, the half-life in [2] was 24 h. The Drug metabolism result in [9] and in data set [10] was “Metabolite_Detected” throughout. Also, the “Ratio EC50” value in data set [11] stood at 326; in data set [12] it was 567; in [13] it was 59. Also, the Retention_time in [6] is on record as 18.1 min. Also, in [8], the outcome was inactive.
Turning to `CCCCCCCCCCCCCCCCCCP(=O)(OCCCC)OP(=O)(O)OP(=O)(O)CO[C@H](C)Cn1cnc2c(N)ncnc21` (some centres undefined), the 50% effective concentration (EC50) in data set [1] was 33 nM. For the same compound, in data set [2], the half-life is over 100 h. For the same compound, the degraded at 600 h in data set [14] was 45%. In addition, the Drug metabolism result in [3] is “Metabolite_Detected”; in [4], “Metabolite_Notdetected”; in [5], “Metabolite_Notdetected”; in data set [15] it was “Metabolite_Notdetected”; in data set [16] it was “Metabolite_Notdetected”. The Retention_time in [6] is reported as 15.2 min. Also, the metabolised at 100 h in [7] was found to be 16%. In data set [8], the outcome was inactive. In data set [17], the degraded at 500 h turned out to be 40%.
